The record followed here is patent publication US10710986B2, “PD-1/PD-L1 inhibitors” (Gilead Sciences, Inc., priority 2018, dated 2020).

Structures are written as SMILES.

Chain of PD-1/PD-L1 (Q9NZQ7 19-238): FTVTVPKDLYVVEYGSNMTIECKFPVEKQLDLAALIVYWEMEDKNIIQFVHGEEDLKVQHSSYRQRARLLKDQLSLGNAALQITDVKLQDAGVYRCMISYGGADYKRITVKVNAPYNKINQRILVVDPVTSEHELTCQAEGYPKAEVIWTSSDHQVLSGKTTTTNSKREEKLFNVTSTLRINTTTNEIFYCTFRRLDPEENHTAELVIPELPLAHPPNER

The assay concerns the target PD-1/PD-L1 (Homo sapiens (Human), UniProt Q9NZQ7). Kind of assay: PD-1/PD-L1 biochemical protein-protein interaction assay (ALPHA). Conditions: 0.3 nM His tagged PD-L1, 2.5 nM biotinylated Fc-PD-1, 60 minutes at 25° C., read-out: IC50 PD-L1-PD1. The procedure: Binding of the protein pairs is measured using a bead based Amplified Luminescent Proximity Homogeneous Assay (ALPHA) platform. Binding of each protein pair results in proximity of the donor and acceptor beads which leads to an increase in ALPHA signal. […] Assays are performed in 25 mM Hepes (pH 7.4), 150 mM NaCl, 3.4 mM EDTA, 0.005% Tween 20, and 0.01% BSA. […] After an assay reaction time of 60 minutes at 25° C., binding was measured with addition of 20 μg/mL ALPHA assay acceptor beads (anti-His coated) and 20 µg/mL ALPHA assay donor beads (streptavidin coated). IC50 values were calculated from the fit of the dose-response curves to a four-parameter equation.
Take `COc1nc(-c2cccc(-c3cccc(-c4cnc(CN5CC6(CCC(=O)N6)C5)c(OC)n4)c3Cl)c2F)cnc1CN1CC2(CCC(=O)N2)C1` [compound 1]: the IC50 (usually the concentration that inhibits the measured activity by half) was 0.08 nM.
Next, `COc1nc(-c2cccc(-c3cccc(-c4cnc(CN5CC(O)C5)c(OC)n4)c3Cl)c2F)cnc1CN1CC(O)C1` [compound 2]: 0.135 nM; `COc1nc(-c2cccc(-c3cccc(-c4cnc(CN5CC(OC)C5)c(OC)n4)c3Cl)c2F)cnc1CN1CC(OC)C1` [compound 3]: 0.318 nM.
The value for `COc1nc(-c2cccc(-c3cccc(-c4cnc(CN5CC6(C5)CN(C(C)=O)C6)c(OC)n4)c3Cl)c2F)cnc1CN1CC2(C1)CN(C(C)=O)C2` [compound 4] was 0.086 nM; that for `COc1nc(-c2cccc(-c3cccc(-c4cnc(CNCCO)c(OC)n4)c3Cl)c2F)cnc1CNCCO` [compound 5] was 0.213 nM.
Next, `COc1nc(-c2cccc(-c3cccc(-c4cnc(CNC[C@@H]5CCC(=O)N5)c(OC)n4)c3Cl)c2F)cnc1CNC[C@@H]1CCC(=O)N1` [compound 6]: 0.099 nM; `COc1nc(-c2cccc(-c3cccc(-c4cnc(CNC56CC(C#N)(C5)C6)c(OC)n4)c3Cl)c2Cl)cnc1CNC[C@@H]1CCC(=O)N1` [compound 7]: 0.43 nM.
As for `COc1nc(-c2cccc(-c3cccc(-c4cnc(CNC56CC(OC)(C5)C6)c(OC)n4)c3Cl)c2Cl)cnc1CNC[C@@H]1CCC(=O)N1` [compound 8], the IC50 was found to be 0.59 nM.
Next, `COc1nc(-c2cccc(-c3cccc(-c4cnc(CN5CC(C)(C#N)C5)c(OC)n4)c3Cl)c2Cl)cnc1CNC[C@@H]1CCC(=O)N1` [compound 9]: 0.49 nM; `COc1nc(-c2cccc(-c3cccc(-c4cnc(CN5CC(C#N)C5)c(OC)n4)c3Cl)c2Cl)cnc1CNC[C@@H]1CCC(=O)N1` [compound 10]: 0.27 nM; `COc1nc(-c2cccc(-c3cccc(-c4cnc(CN[C@@H]5COC[C@H]5O)c(OC)n4)c3Cl)c2Cl)cnc1CNC[C@@H]1CCC(=O)N1` [compound 11]: 0.172 nM.
Next, `COc1nc(-c2cccc(-c3cccc(-c4cnc(CNC56CC(C5)C6)c(OC)n4)c3Cl)c2Cl)cnc1CNC[C@@H]1CCC(=O)N1` [compound 12]: 1.49 nM; `COc1nc(-c2cccc(-c3cccc(-c4cnc(CN5CC(C(N)=O)C5)c(OC)n4)c3Cl)c2Cl)cnc1CNC[C@@H]1CCC(=O)N1` [compound 13]: 0.482 nM; `COc1nc(-c2cccc(-c3cccc(-c4cnc(CN5CC(N6CCCC6=O)C5)c(OC)n4)c3Cl)c2Cl)cnc1CNC[C@@H]1CCC(=O)N1` [compound 14]: 0.224 nM.
Next, `COc1nc(-c2cccc(-c3cccc(-c4cnc(CNC56CC(C(F)(F)F)(C5)C6)c(OC)n4)c3Cl)c2Cl)cnc1CNC[C@@H]1CCC(=O)N1` [compound 15]: 7.51 nM; `COc1nc(-c2cccc(-c3cccc(-c4cnc(CN5CC(C)(O)C5)c(OC)n4)c3Cl)c2Cl)cnc1CNC[C@@H]1CCC(=O)N1` [compound 16]: 0.173 nM.
For the compound `COc1nc(-c2cccc(-c3cccc(-c4cnc(CNC[C@H]5CCCN5C(C)=O)c(OC)n4)c3Cl)c2Cl)cnc1CNC[C@@H]1CCC(=O)N1` [compound 17], the half-maximal inhibitory concentration (IC50) worked out at 0.163 nM.
Next, `COc1nc(-c2cccc(-c3cccc(-c4cnc(CNC[C@@H]5CCCN5C(C)=O)c(OC)n4)c3Cl)c2Cl)cnc1CNC[C@@H]1CCC(=O)N1` [compound 18]: 0.266 nM; `CNC(=O)[C@@H]1CCCN1Cc1ncc(-c2cccc(-c3cccc(-c4cnc(CNC[C@@H]5CCC(=O)N5)c(OC)n4)c3Cl)c2Cl)nc1OC` [compound 19]: 0.199 nM.
Next, `CNC(=O)[C@H]1CCCN1Cc1ncc(-c2cccc(-c3cccc(-c4cnc(CNC[C@@H]5CCC(=O)N5)c(OC)n4)c3Cl)c2Cl)nc1OC` [compound 20]: 0.546 nM.
The value for `COC[C@H]1CCCN1Cc1ncc(-c2cccc(-c3cccc(-c4cnc(CNC[C@@H]5CCC(=O)N5)c(OC)n4)c3Cl)c2Cl)nc1OC` [compound 21] was 0.525 nM; that for `COC[C@@H]1CCCN1Cc1ncc(-c2cccc(-c3cccc(-c4cnc(CNC[C@@H]5CCC(=O)N5)c(OC)n4)c3Cl)c2Cl)nc1OC` [compound 22] was 0.506 nM; that for `COc1nc(-c2cccc(-c3cccc(-c4cnc(CN5CCC[C@@H]5CO)c(OC)n4)c3Cl)c2Cl)cnc1CNC[C@@H]1CCC(=O)N1` [compound 23] was 0.221 nM.
Regarding `COc1nc(-c2cccc(-c3cccc(-c4cnc(CN5CCC[C@H]5CO)c(OC)n4)c3Cl)c2Cl)cnc1CNC[C@@H]1CCC(=O)N1` [compound 24], the IC50 was 0.179 nM.
Consider `COc1nc(-c2cccc(-c3cccc(-c4cnc(CNC[C@@H]5CCC(=O)N5)c(OC)n4)c3Cl)c2Cl)cnc1CNCCOC(N)=O` [compound 25], for which the IC50 came to 0.08 nM.
Next, `COc1nc(-c2cccc(-c3cccc(-c4cnc(CNC[C@@H]5CCC(=O)N5)c(OC)n4)c3Cl)c2Cl)cnc1CNCc1cnn(CCO)c1` [compound 26]: 0.06 nM.
Next, `COc1nc(-c2cccc(-c3cccc(-c4cnc(CNC[C@@H]5CCC(=O)N5)c(OC)n4)c3Cl)c2Cl)cnc1CNCc1ccn(C)n1` [compound 27]: 0.09 nM.
For `COc1nc(-c2cccc(-c3cccc(-c4cnc(CNC[C@@H]5CCC(=O)N5)c(OC)n4)c3Cl)c2Cl)cnc1CNCc1nc[nH]n1` [compound 28], the IC50 stood at 0.436 nM.
Next, `COc1nc(-c2cccc(-c3cccc(-c4cnc(CNCc5nc(C)n[nH]5)c(OC)n4)c3Cl)c2Cl)cnc1CNCc1nc(C)n[nH]1` [compound 29]: 1.09 nM.
The value for `COc1nc(-c2cccc(-c3cccc(-c4cnc(CNCc5ccn(C)n5)c(OC)n4)c3Cl)c2Cl)cnc1CNCc1ccn(C)n1` [compound 30] was 0.475 nM.
The value for `CCn1cc(CNCc2ncc(-c3cccc(-c4cccc(-c5cnc(CNCc6cnn(CC)c6)c(OC)n5)c4Cl)c3Cl)nc2OC)cn1` [compound 31] was 0.334 nM; that for `CCn1cc(CNCc2ncc(-c3cccc(-c4cccc(-c5cnc(CNC[C@@H]6CCC(=O)N6)c(OC)n5)c4Cl)c3Cl)nc2OC)nn1` [compound 32] was 0.187 nM; that for `COc1nc(-c2cccc(-c3cccc(-c4cnc(CNC[C@@H]5CCC(=O)N5)c(OC)n4)c3Cl)c2Cl)cnc1CNCCc1cnn[nH]1` [compound 33] was 0.138 nM.
Take `COc1nc(-c2cccc(-c3cccc(-c4cnc(CNC[C@@H]5CCC(=O)N5)c(OC)n4)c3Cl)c2Cl)cnc1CNCc1ccnn1C` [compound 34]: the IC50 stood at 0.231 nM.
Consider `COc1nc(-c2cccc(-c3cccc(-c4cnc(CNC[C@@H]5CCC(=O)N5)c(OC)n4)c3Cl)c2Cl)cnc1CNCc1c[nH]nn1` [compound 35], for which the IC50 was determined as 0.191 nM.
Next, `COc1nc(-c2cccc(-c3cccc(-c4cnc(CN5C[C@@H](N)CCC5=O)c(OC)n4)c3Cl)c2Cl)cnc1CNC[C@@H]1CCC(=O)N1` [compound 36]: 1.29 nM; `COc1nc(-c2cccc(-c3cccc(-c4cnc(CNC[C@@H]5CCC(=O)N5)c(OC)n4)c3Cl)c2Cl)cnc1CNCCNc1ccc([N+](=O)[O-])cc1` [compound 37]: 1.7 nM.
Next, `COc1nc(-c2cccc(-c3cccc(-c4cnc(CNC(CO)c5nn[nH]n5)c(OC)n4)c3Cl)c2Cl)cnc1CNC[C@@H]1CCC(=O)N1` (stereo partly drawn) [compound 38]: 0.66 nM.
`COc1nc(-c2cccc(-c3cccc(-c4cnc(CN[C@H]5CCNC5=O)c(OC)n4)c3Cl)c2Cl)cnc1CNC[C@@H]1CCC(=O)N1` [compound 39]: the 50% inhibitory concentration (IC50) was 0.39 nM.
Next, `COc1nc(-c2cccc(-c3cccc(-c4cnc(CN5C[C@@H](F)C[C@H]5CO)c(OC)n4)c3Cl)c2Cl)cnc1CNC[C@@H]1CCC(=O)N1` [compound 40]: 0.238 nM; `COc1nc(-c2cccc(-c3cccc(-c4cnc(CN5CCNC(=O)C5)c(OC)n4)c3Cl)c2Cl)cnc1CNC[C@@H]1CCC(=O)N1` [compound 41]: 0.083 nM; `COc1nc(-c2cccc(-c3cccc(-c4cnc(CNC[C@@H]5CCC(=O)N5)c(OC)n4)c3Cl)c2Cl)cnc1CNCCS(=O)(=O)O` [compound 42]: 3.42 nM.
Next, `COc1nc(-c2cccc(-c3cccc(-c4cnc(CNC[C@@H]5CCC(=O)N5)c(OC)n4)c3Cl)c2Cl)cnc1CNCCS(N)(=O)=O` [compound 43]: 0.083 nM; `COc1nc(-c2cccc(-c3cccc(-c4cnc(CNC[C@@H]5CCC(=O)N5)c(OC)n4)c3Cl)c2Cl)cnc1CNCCNC(N)=O` [compound 44]: 0.113 nM.
Next, `COc1nc(-c2cccc(-c3cccc(-c4cnc(CNC[C@@H]5CCC(=O)N5)c(OC)n4)c3Cl)c2Cl)cnc1CNCCC(N)=O` [compound 45]: 0.064 nM; `COc1nc(-c2cccc(-c3cccc(-c4cnc(CN(C)C)c(OC)n4)c3Cl)c2Cl)cnc1CNC[C@@H]1CCC(=O)N1` [compound 46]: 0.081 nM; `COc1nc(-c2cccc(-c3cccc(-c4cnc(CNC[C@@H]5CCC(=O)N5)c(OC)n4)c3Cl)c2Cl)cnc1CNCC(O)C(F)(F)F` (stereo partly drawn) [compound 47]: 0.16 nM.
`CCN(CCc1cn[nH]c1)Cc1ncc(-c2cccc(-c3cccc(-c4cnc(CNC[C@@H]5CCC(=O)N5)c(OC)n4)c3Cl)c2Cl)nc1OC` [compound 48]: the IC50 stood at 0.822 nM.
The value for `COc1nc(-c2cccc(-c3cccc(-c4cnc(CNC[C@@H]5CCC(=O)N5)c(OC)n4)c3Cl)c2Cl)cnc1CNCCc1cn[nH]c1` [compound 49] was 0.356 nM; that for `COc1nc(-c2cccc(-c3cccc(-c4cnc(CN5CC6(CNC(=O)O6)C5)c(OC)n4)c3Cl)c2Cl)cnc1CNC[C@@H]1CCC(=O)N1` [compound 50] was 0.259 nM; that for `COc1nc(-c2cccc(-c3cccc(-c4cnc(CN(C)CC(N)=O)c(OC)n4)c3Cl)c2Cl)cnc1CNC[C@@H]1CCC(=O)N1` [compound 51] was 0.301 nM.
